Assay results from US4110330A, “5'-Acetonylvincristine and related compounds” (priority 1977, dated 1978).
Several values for one entry are separate records, joined by “and”; a condition that tells them apart may be missing. Equal values may be shown once.

Assays:
[1] = test system: experimental maliganancies; settings: background; cited from earlier work
[2] = test system: Gardner lymphosarcoma (GLS); assay: Transplanted tumor GLS in mice, percent inhibition of tumor growth or percent prolongation of survival time; type: in vivo
Protocol: (§1) The compounds of this invention are antimitotic agents being active in tissue culture and against transplanted tumors in mice.
(§2) The following table -- Table 1 -- gives the results of several experiments in which mice bearing transplanted tumors were treated successfully with a compound of this invention. The following abbreviations are employed: Compound A is 5'-acetonylvincristine sulfate; B and C are the corresponding dehydrated hemiketal sulfate and free base; D is 4-desacetyl-5'-acetonylvincristine; GLS is Gardner lymphosarcoma; ROS is Ridgeway Osteogenic Sarcoma and CA755 is an adenocarcinoma. In the table, column 1 gives the compound designation; column 2, the abbreviation of the name of transplanted tumor; column 3, the dose level and the number of days that dosage was administered; and column 4, the percent inhibition of tumor growth or percent prolongation of survival time

[3] = test system: Ridgeway Osteogenic Sarcoma (ROS); assay: Transplanted tumor ROS in mice, percent inhibition of tumor growth or percent prolongation of survival time; type: in vivo
Protocol: as §1, §2

CA755 (adenocarcinoma) = assay: Transplanted tumor CA755 in mice, percent inhibition of tumor growth or percent prolongation of survival time; type: in vivo
Protocol: as §1, §2

[4] = 0.05 mg/kg × 9 days, marked *: not statistically significantly different from control
[5] = 0.3 mg/kg × 7 days, marked *: not statistically significantly different from control

## CCC1(O)CN2CCc3c([nH]c4ccccc34)C(C(=O)OC)(c3cc4c(cc3OC)N(C)C3C(O)(C(=O)OC)CC5(CC)C=CCN6CCC43C65)CC(C2)C1O (centres unmarked) [4-desacetoxy-3'-hydroxyvinblastine]
[1]
  activity in the treatment of experimental malignancies in animals: active

## CC[C@]1(O)C[C@H]2CN(CCc3c([nH]c4ccccc34)[C@@](C(=O)OC)(c3cc4c(cc3OC)N(C)[C@@H]3[C@]45CCN4CC=C[C@@](CC)(C[C@]3(O)C(=O)OC)[C@H]45)C2)C1 [4-desacetoxyvinblastine]
[1]
  activity in the treatment of experimental malignancies in animals: active

## CCC12CC3CN(CCc4c([nH]c5ccccc45)C(C(=O)OC)(c4cc5c(cc4OC)N(C=O)C4C(O)(C(=O)OC)C(OC(C)=O)C6(CC)C=CCN7CCC54C76)C3)C1C=C(C)O2.O=S(=O)(O)O (centres unmarked) [B, 2",3"-dehydro-5'-acetonylvincristine 1",2"-hemiketal]
[2]; [4]
  percent inhibition of tumor growth or percent prolongation of survival time: 13%
[2]; 0.1 mg/kg × 7 days
  percent inhibition of tumor growth or percent prolongation of survival time: 0%
[2]; 0.1 mg/kg × 9 days, marked *: not statistically significantly different from control
  percent inhibition of tumor growth or percent prolongation of survival time: 21%
[2]; 0.2 mg/kg × 7 days, marked *: not statistically significantly different from control
  percent inhibition of tumor growth or percent prolongation of survival time: 21%
[2]; 0.2 mg/kg × 9 days, marked *: not statistically significantly different from control
  percent inhibition of tumor growth or percent prolongation of survival time: 8%
[2]; [5]
  percent inhibition of tumor growth or percent prolongation of survival time: 22% and 37%
[2]; 0.3 mg/kg × 9 days
  percent inhibition of tumor growth or percent prolongation of survival time: 36%
[2]; 0.5 mg/kg × 7 days
  percent inhibition of tumor growth or percent prolongation of survival time: 54% and 39% and 59%
[2]; 0.5 mg/kg × 9 days
  percent inhibition of tumor growth or percent prolongation of survival time: 71%
[2]; 1.0 mg/kg × 7 days
  percent inhibition of tumor growth or percent prolongation of survival time: 100% and 76% and 96%
[2]; 1.0 mg/kg × 9 days
  percent inhibition of tumor growth or percent prolongation of survival time: 93%
[2]; 5.0 mg/kg × 7 days
  percent inhibition of tumor growth or percent prolongation of survival time: 100%
[3]; 0.1 mg/kg × 10 days
  percent inhibition of tumor growth or percent prolongation of survival time: 39%
[3]; 0.2 mg/kg × 10 days
  percent inhibition of tumor growth or percent prolongation of survival time: 26%
[3]; 0.3 mg/kg × 10 days, marked *: not statistically significantly different from control
  percent inhibition of tumor growth or percent prolongation of survival time: 14%
[3]; 0.5 mg/kg × 10 days, marked *: not statistically significantly different from control
  percent inhibition of tumor growth or percent prolongation of survival time: 0%
[3]; 1.0 mg/kg × 10 days, marked *: not statistically significantly different from control
  percent inhibition of tumor growth or percent prolongation of survival time: 0%

## CCC12CC3CN(CCc4c([nH]c5ccccc45)C(C(=O)OC)(c4cc5c(cc4OC)N(C=O)C4C(O)(C(=O)OC)C(OC(C)=O)C6(CC)C=CCN7CCC54C76)C3)C1C=C(C)O2 (centres unmarked) [C, 2",3"-dehydro-5'-acetonylvincristine 1",2"-hemiketal]
[2]; 0.5 mg/kg × 7 days
  percent inhibition of tumor growth or percent prolongation of survival time: 57%
[2]; 0.5 mg/kg × 7 days, marked *: not statistically significantly different from control
  percent inhibition of tumor growth or percent prolongation of survival time: 2%
[2]; 1.0 mg/kg × 7 days
  percent inhibition of tumor growth or percent prolongation of survival time: 100%
[2]; 1.0 mg/kg × 7 days, marked *: not statistically significantly different from control
  percent inhibition of tumor growth or percent prolongation of survival time: 5%
[2]; 5.0 mg/kg × 7 days
  percent inhibition of tumor growth or percent prolongation of survival time: 100%

## CCC1(O)CC2CN(CCc3c([nH]c4ccccc34)C(C(=O)OC)(c3cc4c(cc3OC)N(C=O)C3C(O)(C(=O)OC)C(OC(C)=O)C5(CC)C=CCN6CCC43C65)C2)C1CC(C)=O.O=S(=O)(O)O (centres unmarked) [Compound A, 5'-acetonylvincristine sulfate]
[2]; [4]
  percent inhibition of tumor growth or percent prolongation of survival time: 8%
[2]; 0.3 mg/kg × 7-9 days
  percent inhibition of tumor growth or percent prolongation of survival time: 39%
[2]; 0.3 mg/kg × 7-9 days, marked *: not statistically significantly different from control
  percent inhibition of tumor growth or percent prolongation of survival time: 13%
[2]; 0.5 mg/kg × 7-9 days
  percent inhibition of tumor growth or percent prolongation of survival time: 49% and 65%
[2]; 1.0 mg/kg × 7-9 days
  percent inhibition of tumor growth or percent prolongation of survival time: 81% and 86%
CA755 (adenocarcinoma); 0 mg/kg × 8 days (so in the source)
  percent inhibition of tumor growth or percent prolongation of survival time: 39%
CA755 (adenocarcinoma); 0.3 mg/kg × 8 days, marked *: not statistically significantly different from control
  percent inhibition of tumor growth or percent prolongation of survival time: 21%
CA755 (adenocarcinoma); 0.5 mg/kg × 8 days
  percent inhibition of tumor growth or percent prolongation of survival time: 39%
CA755 (adenocarcinoma); 5.0 mg/kg × 8 days
  percent inhibition of tumor growth or percent prolongation of survival time: 34%
[3]; 0.05 mg/kg × 10 days
  toxicity: TOXIC
[3]; 0.1 mg/kg × 10 days
  percent inhibition of tumor growth or percent prolongation of survival time: 0%
[3]; 0.2 mg/kg × 10 days
  percent inhibition of tumor growth or percent prolongation of survival time: 60%
[3]; 0.3 mg/kg × 10 days
  percent inhibition of tumor growth or percent prolongation of survival time: 34%
[3]; 0.5 mg/kg × 10 days
  toxicity: TOXIC
[3]; 1.0 mg/kg × 10 days
  toxicity: TOXIC

## CCC1(O)CC2CN(CCc3c([nH]c4ccccc34)C(C(=O)OC)(c3cc4c(cc3OC)N(C=O)C3C(O)(C(=O)OC)C(O)C5(CC)C=CCN6CCC43C65)C2)C1CC(C)=O (centres unmarked) [D, 4-desacetyl-5'-acetonylvincristine]
[2]; [5]
  percent inhibition of tumor growth or percent prolongation of survival time: 0%
[2]; 0.5 mg/kg × 7 days
  percent inhibition of tumor growth or percent prolongation of survival time: 37% and 26%
[2]; 1.0 mg/kg × 7 days
  percent inhibition of tumor growth or percent prolongation of survival time: 100% and 62%

## CC[C@]1(O)C[C@@H]2CN(CCc3c([nH]c4ccccc34)[C@@](C(=O)OC)(c3cc4c(cc3OC)N(C)[C@H]3[C@@](O)(C(=O)OC)[C@H](OC(C)=O)[C@]5(CC)C=CCN6CC[C@]43[C@@H]65)C2)C1 [VLB, vincaleukoblastine]
[1]
  activity in the treatment of experimental malignancies in animals: active

## CCC1CC2CN(CCc3c([nH]c4ccccc34)C(C(=O)OC)(c3cc4c(cc3OC)N(C)C3C(O)(C(=O)OC)C(OC(C)=O)C5(CC)C=CCN6CCC43C65)C2)C1 (centres unmarked) [deoxy VLB "A"]
[1]
  activity in the treatment of experimental malignancies in animals: active

## CCC1(O)CN2CCc3c([nH]c4ccccc34)C(C(=O)OC)(c3cc4c(cc3OC)N(C)C3C(O)(C(=O)OC)C(OC(C)=O)C5(CC)C=CCN6CCC43C65)CC(O)(C2)C1 (centres unmarked) [leurocolombine]
[1]
  activity in the treatment of experimental malignancies in animals: active

## CC[C@]1(O)C[C@H]2CN(CCc3c([nH]c4ccccc34)[C@@](C(=O)OC)(c3cc4c(cc3OC)N(C=O)[C@H]3[C@@](O)(C(=O)OC)[C@H](OC(C)=O)[C@]5(CC)C=CCN6CC[C@]43[C@@H]65)C2)C1 [leurocristine]
[1]
  activity in the treatment of experimental malignancies in animals: active

## CC[C@]12CN3CCc4c([nH]c5ccccc45)[C@@](C(=O)OC)(c4cc5c(cc4OC)N(C=O)[C@H]4[C@@](O)(C(=O)OC)[C@H](OC(C)=O)[C@]6(CC)C=CCN7CC[C@]54[C@@H]76)C[C@@H](C3)[C@H]1O2 [leuroformine, N-formylleurosine]
[1]
  activity in the treatment of experimental malignancies in animals: active

## CC[C@@]1(O)C[C@@H]2CN(CCc3c([nH]c4ccccc34)[C@@](C(=O)OC)(c3cc4c(cc3OC)N(C)[C@H]3[C@@](O)(C(=O)OC)[C@H](OC(C)=O)[C@]5(CC)C=CCN6CC[C@]43[C@@H]65)C2)C1 [leurosidine]
[1]
  activity in the treatment of experimental malignancies in animals: active

## CC[C@]12CN3CCc4c([nH]c5ccccc45)[C@@](C(=O)OC)(c4cc5c(cc4OC)N(C)[C@H]4[C@@](O)(C(=O)OC)[C@H](OC(C)=O)[C@]6(CC)C=CCN7CC[C@]54[C@@H]76)C[C@H](C3)[C@H]1O2 [leurosine]
[1]
  activity in the treatment of experimental malignancies in animals: active

## CCC1(O)CN2CCc3c([nH]c4ccccc34)C(C(=O)OC)(c3cc4c(cc3OC)N(C)C3C(O)(C(=O)OC)C(OC(C)=O)C5(CC)C=CCN6CCC43C65)CC(C2)C1O (centres unmarked) [vincadioline]
[1]
  activity in the treatment of experimental malignancies in animals: active
